From ChEMBL document CHEMBL4382273, “Antiprotozoal Isoprenoids from Salvia hydrangea” (J Nat Prod, 2018)

Columns and labels:
[1] = Selectivity index, ratio of IC50 for rat L6 cells to IC50 for Trypanosoma cruzi Tulahuen C4 amastigotes harboring LacZ infected in rat L6 cells; assay type: toxicity, cell-based; details: read-out: Ratio IC50
[2] = test system: L6; assay: Cytotoxicity against rat L6 cells after 72 hrs by alamar blue assay; assay type: cell-based; details: L6, 72 h
[3] = test system: Plasmodium falciparum; assay: microbe, parasite or virus in culture; details: NF54
Description: Antiplasmodial activity against IEF stage of Plasmodium falciparum NF54 assessed as reduction in [3H]hypoxanthine incorporation preincubated for 48 hrs followed by [3H]hypoxanthine addition measured after 24 hrs by liquid scintillation counting method

[4] = Selectivity index, ratio of IC50 for rat L6 cells to IC50 for Leishmania donovani MHOM/ET/67/L82 axenic amastigotes; assay type: toxicity; details: read-out: Ratio IC50
[5] = test system: Trypanosoma cruzi; assay: Antitrypanosomal activity against Trypanosoma cruzi Tulahuen C4 amastigotes harboring LacZ infected in rat L6 cells after 96 hrs by CPRG/Nonidet reagent based photometric analysis; assay type: functional, organism-based; details: Tulahuen C4, L6, 96 h
[6] = test system: Leishmania donovani; assay: Antileishmanial activity against Leishmania donovani MHOM/ET/67/L82 axenic amastigotes after 72 hrs by alamar blue staining based fluorescence assay; assay type: functional, organism-based; details: MHOM/ET/67/L82, 72 h
[7] = Selectivity index, ratio of IC50 for rat L6 cells to IC50 for trypomastigote stage of Trypanosoma brucei rhodesiense STIB900; assay type: toxicity; details: read-out: Ratio IC50
[8] = test system: Trypanosoma brucei rhodesiense; assay: Antiprotozoal activity against trypomastigote stage of Trypanosoma brucei rhodesiense STIB900 after 72 hrs by Alamar Blue assay; assay type: functional, organism-based; details: STIB900, 72 h
[9] = Selectivity index, ratio of IC50 for rat L6 cells to IC50 for IEF stage of Plasmodium falciparum NF54; assay type: toxicity; details: read-out: Ratio IC50

With `CC(C)C1=C2OC(C)(C)[C@H]3C[C@@]45O[C@]4(C)[C@H](O)C[C@@]4(CC[C@H]6C(C)(C)CCC[C@]67C[C@@]45[C@@]23O7)C1=O` the selectivity ratio [1] was 2.4, the IC50 [2] was 46.9 µM and the IC50 [3] was 3.6 µM. It also gave a selectivity ratio [4] of 1.1, an IC50 [5] of 19.8 µM and an IC50 [6] of 44.1 µM. It also gave a selectivity ratio [7] of 0.6, an IC50 [8] of 74.6 µM and a selectivity ratio [9] of 12.9.
`C=CC1=C[C@@H]2[C@H]3C(C)=CO[C@]45O[C@]67CCCC(C)(C)[C@@H]6CC[C@](C1)(C(=O)[C@]3(C(C)C)C4=O)[C@]25C7` showed a selectivity ratio [1] of 0.9, an IC50 [2] of 41.6 µM and an IC50 [3] of 1.9 µM. It also gave a selectivity ratio [4] of 2.7, an IC50 [5] of 47.9 µM and an IC50 [6] of 15.6 µM. It also gave a selectivity ratio [7] of 1.7, an IC50 [8] of 24.6 µM and a selectivity ratio [9] of 22.
For `CC1=C2C[C@@H]3C(C)(C)O[C@]45O[C@@]4(C(C)C)C(=O)[C@]4(CC[C@H]6C(C)(C)CCC[C@]67C[C@]24[C@]35O7)CC1=O`, the selectivity ratio [1] was 6.3, the IC50 [2] was 72.2 µM and the IC50 [3] was 1.3 µM. The selectivity ratio [4] was 5.9, the IC50 [5] was 11.5 µM and the IC50 [6] was 12.3 µM. It also gave a selectivity ratio [7] of 2.4, an IC50 [8] of 30.5 µM and a selectivity ratio [9] of 56.9.
Compound `CC(C)=C[C@H]1[C@@H]2C(C)=CC[C@]34CC[C@H]5C(C)(C)CCC[C@]56C[C@]23[C@@](O)(O6)C(=O)[C@]1(C(C)C)C4=O` has a selectivity ratio [1] of 1.3, an IC50 [2] of 47.2 µM and an IC50 [3] of 1.1 µM. It also gave a selectivity ratio [4] of 2.2, an IC50 [5] of 35.8 µM and an IC50 [6] of 21.3 µM. For the same compound, the selectivity ratio [7] was 0.7, the IC50 [8] was 66.9 µM and the selectivity ratio [9] was 44.2.
Work on `CC1=C2[C@H](O)[C@@H]3C(C)(C)OC4=C(C(C)C)C(=O)[C@]5(CC[C@H]6C(C)(C)CCC[C@]67C[C@]25[C@@]43O7)CC1=O` yielded a selectivity ratio [1] of 3.6, an IC50 [2] of 13.6 µM and an IC50 [3] of 7.5 µM. It also gave a selectivity ratio [4] of 1.8, an IC50 [5] of 3.8 µM and an IC50 [6] of 7.5 µM. It also gave a selectivity ratio [7] of 0.3, an IC50 [8] of 45.3 µM and a selectivity ratio [9] of 1.8.
For `CC(=O)[C@@]12C[C@H]3C(C)(C)OC4=C(C(C)C)C(=O)[C@]5(CC[C@H]6C(C)(C)CCC[C@]67C[C@@]51[C@@]43O7)C[C@H]2O`, the selectivity ratio [1] was 1.2, the IC50 [2] was 41.1 µM and the IC50 [3] was 7.9 µM. It also gave a selectivity ratio [4] of 3.3, an IC50 [5] of 33.9 µM and an IC50 [6] of 12.3 µM. For the same compound, the selectivity ratio [7] was 0.5, the IC50 [8] was 85.8 µM and the selectivity ratio [9] was 5.2.
Compound `CC1=C2C[C@@H]3C(C)(C)OC4=C(C(C)C)C(=O)[C@]5(CC[C@H]6C(C)(C)CCC[C@]67C[C@]25[C@@]43O7)CC1=O` has a selectivity ratio [1] of 10.7, an IC50 [2] of 37.2 µM and an IC50 [3] of 0.6 µM. The selectivity ratio [4] was 2.4, the IC50 [5] was 3.5 µM and the IC50 [6] was 15.5 µM. For the same compound, the selectivity ratio [7] was 0.7, the IC50 [8] was 56 µM and the selectivity ratio [9] was 62.2.
Work on `C[C@@H]1CC[C@H]2[C@@H](C)C(=O)O[C@@H]3O[C@@]4(C)CC[C@@H]1[C@]32OO4` [ARTEMISININ] yielded an IC50 [3] of 0.008 µM.
In the case of `O=C(Cn1ccnc1[N+](=O)[O-])NCc1ccccc1` [BENZNIDAZOLE], the IC50 [5] is reported as 5.1 µM.
In the case of `Nc1nc(N)nc(Nc2ccc([As]3SCC(CO)S3)cc2)n1` (configuration not stated) [MELARSOPROL], the IC50 [8] is reported as 0.04 µM.
Compound `CCCCCCCCCCCCCCCCOP(=O)([O-])OCC[N+](C)(C)C` [MILTEFOSINE] has an IC50 [6] of 0.9 µM.
